# Key:
# Assay in all cases: relative viability (nuclei count vs DMSO), 5 days (fraction); higher = more cells survive
# [1] = compound: O=C(NC1CCNCC1)c1n[nH]cc1NC(=O)c1c(Cl)cccc1Cl [AT-7519] + Nc1nc2[nH]cc(CCc3ccc(C(=O)N[C@@H](CCC(=O)O)C(=O)O)cc3)c2c(=O)[nH]1 [Pemetrexed] (partner 0.2 µM)
# Procedure, shortened: (§1)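 Lung cancer cell lines, seeded in 1536-well plates, were treated the following day by pin tool with a single drug or with five library-drug doses (not always all listed) in √10 steps on top of a fixed anchor-drug dose. Cells were fixed and nuclei stained in one step after 5 days, and nuclei were counted. Relative viability is the nuclei count for treated wells divided by that for vehicle wells, reported as medians of duplicate plates.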
# [2] = compound: O=C(NC1CCNCC1)c1n[nH]cc1NC(=O)c1c(Cl)cccc1Cl [AT-7519] + N=C(N)NC(=N)NCCc1ccccc1 [Phenformin] (partner 250 µM)
# Procedure, shortened: as §1
# [3] = compound: C1=CC2=C(C=C(C(=C2N=C1)O)N=NC3=CC4=C(C=C3)C=C(C=C4)S(=O)(=O)O)S(=O)(=O)O + C[C@@H](Oc1cc(-c2cnn(C3CCNCC3)c2)cnc1N)c1c(Cl)ccc(F)c1Cl [Crizotinib] (partner 1 µM)
# Procedure, shortened: as §1
# [4] = compound: C1=CC2=C(C=C(C(=C2N=C1)O)N=NC3=CC4=C(C=C3)C=C(C=C4)S(=O)(=O)O)S(=O)(=O)O + COc1cccc2cc(-c3nc([C@H]4CC[C@H](C(=O)O)CC4)n4ncnc(N)c34)[nH]c12 [OSI-027] (partner 0.5 µM)
# Procedure, shortened: as §1
cell line,measurement,setting,value
UMC-11,relative viability,[1]; first compound 0.01 µM,0.807
same,relative viability,[1]; first compound 0.03162 µM,0.801
same,relative viability,[1]; first compound 0.3162 µM,0.586
same,relative viability,[1]; first compound 1 µM,0.331
same,relative viability,[2]; first compound 0.01 µM,0.319
same,relative viability,[2]; first compound 0.03162 µM,0.339
same,relative viability,[2]; first compound 0.3162 µM,0.308
same,relative viability,[2]; first compound 1 µM,0.237
same,relative viability,[3]; first compound 0.08 µM,0.818
same,relative viability,[3]; first compound 0.253 µM,0.584
same,relative viability,[3]; first compound 0.8 µM,0.491
same,relative viability,[3]; first compound 2.53 µM,0.693
same,relative viability,[3]; first compound 8 µM,0.717
same,relative viability,[4]; first compound 0.08 µM,0.492
same,relative viability,[4]; first compound 0.253 µM,0.435
same,relative viability,[4]; first compound 0.8 µM,0.458
same,relative viability,[4]; first compound 2.53 µM,0.47
same,relative viability,[4]; first compound 8 µM,0.485
